Among the data in PubChem BioAssay (NCI) are TGI values, retold here.

Holding throughout (test): NCI anticancer screen, dose series, 48 h
In test [1] the test system is A549 NSCLC.
Test [2] relates to CAKI-1 renal.
The test system of test [3] is EKVX NSCLC.
Test [4] has as its system HS 578T breast.
Test [5] concerns KM12 colon.
Test [6] has as its system MDA-N.
Test [7] has as its system NCI-H226 lung.
Test [8] has as its system NCI-H522 lung.
Test [9] has as its system RPMI-8226 leukemia.
The subject of test [10] is SK-MEL-2 melanoma.
In test [11] the test system is SK-MEL-28 melanoma.
For test [12], the system named is SK-MEL-5 melanoma.
Test [13] has as its system SNB-75 CNS.
Test [14] has as its system TK-10 renal.
The test system of test [15] is M14 melanoma.
Test [16] has as its system RXF 393 renal.

Structures are written as SMILES.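 1) Cells in 96-well plates. 2) Compound, 48 h, 5 concentrations. 3) Linear interpolation between surrounding doses. 4) Unreached endpoint = highest concentration. TGI denotes the concentration required for complete inhibition of growth.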

`C=C1CC(Cn2cc(C)c(=O)[nH]c2=O)(c2ccc(-c3ccccc3)cc2)OC1=O` (stereo not given): the TGI in [1] is 23 µM; in test [2], 4.94 µM; in [3], 22.1 µM; in test [4], > 21.2 µM; in test [5] it was 7.36 µM; in [6], 2.75 µM. For the same compound, the TGI turned out to be 35.5 µM in test [7]; 3.59 µM in [8]; 1.9 µM in test [9]; 4.19 µM in test [10]; 3.75 µM in test [11]; 2.56 µM in test [12]. Further, the figures for the TGI in [13] and in test [14] were 21.8 µM and 2.76 µM, respectively.

Regarding `COP1(=O)NCc2ncccc2O1` (stereo not given), the TGI in test [1], in test [2], in test [3], in [5], in [15] and in [6] was > 100 µM throughout. The TGI in test [7], in test [9], in test [16], in [10], in test [11] and in test [12] was > 100 µM each time. Besides, the TGI in test [13] is > 100 µM.

For the compound `CCOC(=O)c1cccc([N+](=O)[O-])c1N`, the TGI in test [1], in test [2], in [3], in test [4], in test [5] and in [15] was > 100 µM each time. The TGI in test [6], in [7], in [8], in [9], in test [10] and in [11] was > 100 µM in each case. The TGI in test [12], in test [13] and in test [14] was > 100 µM throughout.

Turning to `O=C(N/N=C1/C(=O)c2c3ccccc3cc3cccc1c23)c1cccc(Cl)c1`, the TGI in [1] was > 100 µM; in test [2] it was > 100 µM; in [4], 67.2 µM; in [5], > 100 µM; in test [15] it was > 100 µM; in [6], > 100 µM. For the same compound, the TGI in test [7], in test [9], in test [16], in [10], in test [11] and in [12] was > 100 µM each time. Besides, in test [13], the TGI was > 100 µM.

On to `CC(C)[Si](OC1=C(C(=O)N(C)c2ccccc2Cl)CCC1)(C(C)C)C(C)C`, for which the TGI in [1] amounted to 32.1 µM; in test [2], 36.5 µM; in test [3], 31.1 µM; in test [5], 50.2 µM; in [15], 35.7 µM; in test [6] it was 38.8 µM. Moreover, the TGI stood at 40.3 µM in test [7]; 28.6 µM in [8]; 49.6 µM in test [9]; 35.4 µM in test [16]; 39.7 µM in test [11]; 41.2 µM in [12]. The figures for the TGI in test [13] and in test [14] were 29.1 µM and 39.1 µM, respectively.

`C=C(C)[C@@]1(O)CCC[C@H]1NC(=O)OC(C)(C)C`: the TGI in [1], in test [2], in test [3], in test [5], in test [15] and in test [6] was > 100 µM in each case. Moreover, the TGI in test [7], in test [8], in test [16], in test [10], in [11] and in [12] was > 100 µM each time. Also, the TGI in test [13] and in test [14] was > 100 µM throughout.

`CCN1CC2=C(NC(=S)NC2c2cc(OC)c(OC)c(OC)c2)/C(=C/c2cc(OC)c(OC)c(OC)c2)C1` (stereo not given): the TGI in [1], in test [2], in [3], in test [5], in [15] and in test [6] was > 100 µM throughout. For the same compound, the TGI in [7] is > 100 µM; in test [8], 55.9 µM; in [9], 42.9 µM; in [16] it was > 100 µM; in test [10], > 100 µM; in test [11], 47.2 µM. Further, the TGI in [12] was 40.1 µM; in [13], 20.8 µM; in test [14] it was > 100 µM.

On to `Cc1ccc(CS(=O)(=O)C/N=c2\sc3ccccc3nc2/C=C(\O)c2ccc(Cl)cc2)cc1`, for which the TGI in test [1], in test [2], in [4], in test [5], in [15] and in test [6] was > 10 µM each time. Also, the TGI in test [8], in [9], in test [11], in test [12], in test [13] and in test [14] was > 10 µM in each case.
